According to patent US20250382344A1, “Soluble GLP1/GIP/NPY2 Receptor Triple Agonists” (Boehringer Ingelheim International GmH, priority 2024, published 2025):
Where two headings read alike, the source gives them in different places.

Experiments:
[1] = molecular target: T1, hGIPR (Homo sapiens, UniProt P48546); test: hGIPR CreLuc assay in 0.5% and 100% plasma (CHO CRE-luciferase reporter cells); assay type: cell-based
T1 construct: expressed in transfected cells; host or cells: CHO CRE-luciferase reporter cells
T1 sequence (P48546 22-466): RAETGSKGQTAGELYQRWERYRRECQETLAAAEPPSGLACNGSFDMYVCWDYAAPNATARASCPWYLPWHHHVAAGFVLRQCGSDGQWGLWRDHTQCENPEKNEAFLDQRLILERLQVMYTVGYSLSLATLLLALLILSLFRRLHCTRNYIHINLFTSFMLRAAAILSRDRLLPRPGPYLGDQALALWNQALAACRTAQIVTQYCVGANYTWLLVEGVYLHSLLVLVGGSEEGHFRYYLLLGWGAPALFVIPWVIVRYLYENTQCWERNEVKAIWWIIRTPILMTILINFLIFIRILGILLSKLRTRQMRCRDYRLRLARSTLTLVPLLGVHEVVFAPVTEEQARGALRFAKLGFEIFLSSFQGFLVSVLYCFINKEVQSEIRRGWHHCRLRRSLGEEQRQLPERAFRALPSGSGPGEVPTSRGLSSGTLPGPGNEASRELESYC
Text: CHO and HEK-293 recombinant cell lines express a luciferase reporter gene under control of the CAMP responsive element (CRE). As a second recombinant protein the GLP-1 and NPY2 receptors were expressed in the reporter gene HEK cells, and the GIP receptor was expressed in the reporter gene CHO cells, respectively. Stimulation of these recombinant cells with an agonist leads to an increase of intracellular CAMP levels. In the presence of CAMP, the transcription factor CRE binding protein (CREB) binds to the CRE and to the CREB binding protein (CBP), which leads to transcription of the luciferase reporter gene. Peptides upon serial-dilution in 100% DMSO were transferred into 384-well assay plates with 5 μl pre-dispensed assay buffer (1×HBSS, 20 mM HEPES, pH7.4 supplemented with 0.5% human plasma) using acoustic dispensing on a Labcyte ECHO. Cryo-preserved transgenic reporter gene cells were thawed in assay buffer. 20 μl (10.000 cells/well) were added to the plate with the peptides and incubated for 4 hours at 37° C. in a humidified incubator. Following incubation, assay plates are equilibrated to room temperature, followed by addition of 25 μl of Bright-Glo™ Luciferase reagent, incubation at room temperature for 10 minutes and analysis of luminescence (Envision Reader). […] EC50 values were calculated by non-linear regression using sigmoid concentration-response with variable slope.
The same assays were run in the presence of 100% plasma with no additional buffer constituents.

[2] = Solubility in 0.1 M phosphate buffer at pH 7; assay type: physicochemical; settings: 0.1 M phosphate buffer at pH 7, 10 mg/mL final peptide concentration, shaking 2 hours at room temperature, peptides as TFA-salts, measured sample pH 6.5-7.0
[3] = 0.5% human plasma, read-out: hGIPR 0.5% hP

Structure (SMILES)	EC50 [1, 3]	solubility at 2 h [2]	EC50 ([1]; 100% human plasma, read-out: hGIPR 100% hP)	solubility ([2]; read-out: Solubility)
CC[C@H](C)[C@H](NC(=O)[C@H](CC(C)C)NC(=O)[C@H](Cc1c[nH]cn1)NC(=O)[C@H](CCCNC(=N)N)NC(=O)[C@@H](NC(=O)[C@H](Cc1ccccc1)NC(=O)[C@H](C)NC(=O)C(C)(C)NC(=O)[C@H](CCC(N)=O)NC(=O)[C@H](C)NC(=O)[C@H](CCC(N)=O)NC(=O)[C@H](CCCCN)NC(=O)[C@H](CCC(=O)O)NC(=O)[C@H](CC(C)C)NC(=O)C(C)(C)NC(=O)[C@@H](NC(=O)[C@H](CO)NC(=O)[C@H](Cc1ccc(O)cc1)NC(=O)[C@H](CC(=O)O)NC(=O)[C@H](CO)NC(=O)[C@@H](NC(=O)[C@H](Cc1ccccc1)NC(=O)[C@@H](NC(=O)CNC(=O)[C@H](CCC(=O)O)NC(=O)C(C)(C)NC(=O)[C@@H](N)Cc1ccc(O)cc1)[C@@H](C)O)[C@@H](C)O)[C@@H](C)CC)C(C)C)C(=O)N[C@@H](CC(N)=O)C(=O)N[C@@H](CCCCNC(=O)CC[C@H](NC(=O)CC[C@H](NC(=O)COCCOCCNC(=O)CC[C@H](NC(=O)CC[C@H](NC(=O)CC[C@H](NC(=O)CC[C@H](NC(=O)CCCCCCCCCCCCCCCCCCC(=O)O)C(=O)O)C(=O)O)C(=O)O)C(=O)O)C(=O)O)C(=O)O)C(=O)NC(C)(C)C(=O)N[C@H](C(=O)N[C@@H](CCCNC(=N)N)C(=O)N[C@@H](CCC(N)=O)C(=O)N[C@@H](CCCNC(=N)N)C(=O)N[C@@H](Cc1ccc(O)cc1)C(N)=O)[C@@H](C)O [Compound 136, Y-Aib-E-G-T-F-T-S-D-Y-S-I-Aib-L-E-K-Q-A-Q-Aib-A-F-V-R-H-L-I-N-K(1,3)-Aib-T-R-Q-R-Y-NH2.C20DA-gGlu-gGlu-gGlu-gGlu-OEG-gGlu-gGlu(1,2)]	0.5 nM	9600 µg/mL	–	–
CC[C@H](C)[C@H](NC(=O)[C@H](CC(C)C)NC(=O)[C@H](Cc1c[nH]cn1)NC(=O)[C@H](CCCNC(=N)N)NC(=O)[C@@H](NC(=O)[C@H](Cc1ccccc1)NC(=O)[C@H](C)NC(=O)C(C)(C)NC(=O)[C@H](CCC(N)=O)NC(=O)[C@H](C)NC(=O)[C@H](CCC(N)=O)NC(=O)[C@H](CCCCN)NC(=O)[C@H](CCC(=O)O)NC(=O)[C@H](CC(C)C)NC(=O)C(C)(C)NC(=O)[C@@H](NC(=O)[C@H](CO)NC(=O)[C@H](Cc1ccc(O)cc1)NC(=O)[C@H](CC(=O)O)NC(=O)[C@H](CO)NC(=O)[C@@H](NC(=O)[C@H](Cc1ccccc1)NC(=O)[C@@H](NC(=O)CNC(=O)[C@H](CCC(=O)O)NC(=O)C(C)(C)NC(=O)[C@@H](N)Cc1ccc(O)cc1)[C@@H](C)O)[C@@H](C)O)[C@@H](C)CC)C(C)C)C(=O)N[C@@H](CC(N)=O)C(=O)N[C@@H](CCCCNC(=O)[C@@H](N)CCCCNC(=O)CC[C@H](NC(=O)CC[C@H](NC(=O)CC[C@H](NC(=O)CC[C@H](NC(=O)CC[C@H](NC(=O)CCCCCCCCCCCCCCCCCCC(=O)O)C(=O)O)C(=O)O)C(=O)O)C(=O)O)C(=O)O)C(=O)NC(C)(C)C(=O)N[C@H](C(=O)N[C@@H](CCCNC(=N)N)C(=O)N[C@@H](CCC(N)=O)C(=O)N[C@@H](CCCNC(=N)N)C(=O)N[C@@H](Cc1ccc(O)cc1)C(N)=O)[C@@H](C)O [Compound 59, Y-Aib-E-G-T-F-T-S-D-Y-S-I-Aib-L-E-K-Q-A-Q-Aib-A-F-V-R-H-L-I-N-K(1,3)-Aib-T-R-Q-R-Y-NH2.C20DA-gGlu-gGlu-gGlu-gGlu-gGlu-eLys(1,2)]	0.4 nM	2100 µg/mL	–	–
CC[C@H](C)[C@H](NC(=O)[C@H](CC(C)C)NC(=O)[C@H](Cc1c[nH]cn1)NC(=O)[C@H](CCCNC(=N)N)NC(=O)[C@@H](NC(=O)[C@H](Cc1ccccc1)NC(=O)[C@H](C)NC(=O)[C@H](C)NC(=O)[C@H](CCC(N)=O)NC(=O)[C@H](C)NC(=O)[C@H](CCC(N)=O)NC(=O)[C@H](CCCCN)NC(=O)[C@H](CCC(=O)O)NC(=O)[C@H](CC(C)C)NC(=O)C(C)(C)NC(=O)[C@@H](NC(=O)[C@H](CO)NC(=O)[C@H](Cc1ccc(O)cc1)NC(=O)[C@H](CC(=O)O)NC(=O)[C@H](CO)NC(=O)[C@@H](NC(=O)[C@H](Cc1ccccc1)NC(=O)[C@@H](NC(=O)CNC(=O)[C@H](CCC(=O)O)NC(=O)C(C)(C)NC(=O)[C@@H](N)Cc1ccc(O)cc1)[C@@H](C)O)[C@@H](C)O)[C@@H](C)CC)C(C)C)C(=O)N[C@@H](CC(N)=O)C(=O)N[C@@H](CCCCNC(=O)[C@@H](N)CCCCNC(=O)CC[C@H](NC(=O)CC[C@H](NC(=O)CC[C@H](NC(=O)CC[C@H](NC(=O)CC[C@H](NC(=O)CC[C@H](NC(=O)CCCCCCCCCCCCCCCCC(=O)O)C(=O)O)C(=O)O)C(=O)O)C(=O)O)C(=O)O)C(=O)O)C(=O)NC(C)(C)C(=O)N[C@H](C(=O)N[C@@H](CCCNC(=N)N)C(=O)N[C@@H](CCC(N)=O)C(=O)N[C@@H](CCCNC(=N)N)C(=O)N[C@@H](Cc1ccc(O)cc1)C(N)=O)[C@@H](C)O [Compound 61, Y-Aib-E-G-T-F-T-S-D-Y-S-I-Aib-L-E-K-Q-A-Q-A-A-F-V-R-H-L-I-N-K(1,3)-Aib-T-R-Q-R-Y-NH2.C18DA-gGlu-gGlu-gGlu-gGlu-gGlu-gGlu-eLys(1,2)]	0.4 nM	3700 µg/mL	–	–
CC[C@H](C)[C@H](NC(=O)[C@H](CC(C)C)NC(=O)[C@H](Cc1c[nH]cn1)NC(=O)[C@H](CCCNC(=N)N)NC(=O)[C@@H](NC(=O)[C@H](Cc1ccccc1)NC(=O)[C@H](C)NC(=O)C(C)(C)NC(=O)[C@H](CCC(N)=O)NC(=O)[C@H](C)NC(=O)[C@H](CCC(N)=O)NC(=O)[C@H](CC(N)=O)NC(=O)[C@H](CCC(=O)O)NC(=O)[C@H](CC(C)C)NC(=O)C(C)(C)NC(=O)[C@@H](NC(=O)[C@H](CO)NC(=O)[C@H](Cc1ccc(O)cc1)NC(=O)[C@H](CC(=O)O)NC(=O)[C@H](CO)NC(=O)[C@@H](NC(=O)[C@H](Cc1ccccc1)NC(=O)[C@@H](NC(=O)CNC(=O)[C@H](CCC(=O)O)NC(=O)C(C)(C)NC(=O)[C@@H](N)Cc1ccc(O)cc1)[C@@H](C)O)[C@@H](C)O)[C@@H](C)CC)C(C)C)C(=O)N[C@@H](CC(N)=O)C(=O)N[C@@H](CCCCNC(=O)[C@@H](N)CCCCNC(=O)CC[C@H](NC(=O)CC[C@H](NC(=O)CC[C@H](NC(=O)CC[C@H](NC(=O)CC[C@H](NC(=O)CC[C@H](NC(=O)CCCCCCCCCCCCCCCCC(=O)O)C(=O)O)C(=O)O)C(=O)O)C(=O)O)C(=O)O)C(=O)O)C(=O)NC(C)(C)C(=O)N[C@H](C(=O)N[C@@H](CCCNC(=N)N)C(=O)N[C@@H](CCC(N)=O)C(=O)N[C@@H](CCCNC(=N)N)C(=O)N[C@@H](Cc1ccc(O)cc1)C(N)=O)[C@@H](C)O [Compound 6, Y-Aib-E-G-T-F-T-S-D-Y-S-I-Aib-L-E-N-Q-A-Q-Aib-A-F-V-R-H-L-I-N-K(1,3)-Aib-T-R-Q-R-Y-NH2.C18DA-gGlu-gGlu-gGlu-gGlu-gGlu-gGlu-eLys(1,2)]	0.7 nM	8900 µg/mL	–	–
CC[C@H](C)[C@H](NC(=O)[C@H](CC(C)C)NC(=O)[C@H](Cc1c[nH]cn1)NC(=O)[C@H](CCCNC(=N)N)NC(=O)[C@@H](NC(=O)[C@H](Cc1ccccc1)NC(=O)[C@H](C)NC(=O)C(C)(C)NC(=O)[C@H](CCC(N)=O)NC(=O)[C@H](CCCNC(=N)N)NC(=O)[C@H](CCC(N)=O)NC(=O)[C@H](CCCCN)NC(=O)[C@H](CCC(=O)O)NC(=O)[C@H](CC(C)C)NC(=O)C(C)(C)NC(=O)[C@@H](NC(=O)[C@H](CO)NC(=O)[C@H](Cc1ccc(O)cc1)NC(=O)[C@H](CC(=O)O)NC(=O)[C@H](CO)NC(=O)[C@@H](NC(=O)[C@H](Cc1ccccc1)NC(=O)[C@@H](NC(=O)CNC(=O)[C@H](CCC(=O)O)NC(=O)C(C)(C)NC(=O)[C@@H](N)Cc1ccc(O)cc1)[C@@H](C)O)[C@@H](C)O)[C@@H](C)CC)C(C)C)C(=O)N[C@@H](CC(N)=O)C(=O)N[C@@H](CCCCNC(=O)[C@@H](N)CCCCNC(=O)CC[C@H](NC(=O)CC[C@H](NC(=O)CC[C@H](NC(=O)CC[C@H](NC(=O)CC[C@H](NC(=O)CC[C@H](NC(=O)CCCCCCCCCCCCCCCCC(=O)O)C(=O)O)C(=O)O)C(=O)O)C(=O)O)C(=O)O)C(=O)O)C(=O)NC(C)(C)C(=O)N[C@H](C(=O)N[C@@H](CCCNC(=N)N)C(=O)N[C@@H](CCC(N)=O)C(=O)N[C@@H](CCCNC(=N)N)C(=O)N[C@@H](Cc1ccc(O)cc1)C(N)=O)[C@@H](C)O [Compound 91, Y-Aib-E-G-T-F-T-S-D-Y-S-I-Aib-L-E-K-Q-R-Q-Aib-A-F-V-R-H-L-I-N-K(1,3)-Aib-T-R-Q-R-Y-NH2.C18DA-gGlu-gGlu-gGlu-gGlu-gGlu-Glu-eLys(1,2)]	0.8 nM	–	14.4 nM	2200 µg/mL
